Experimental data reported in patent US20260048118A1, “COMPOSITIONS AND METHODS FOR ENHANCING TRIPLEX AND NUCLEASE-BASED GENE EDITING” (Yale University, priority 2018, published 2026).

What was measured:
[1] = test system: CD117+ cells from bone marrow and spleen of β-globin/GFP transgenic mice; assay: In vivo gene editing in CD117+ cells of β-globin/GFP transgenic mice, GFP flow cytometry; set-up: species or system mouse; details: 0.5 mg 3E10 i.p. 3 h before 2 mg PNA/DNA nanoparticles i.v.; harvested after eight days
Experimental: To evaluate the effects of 3E10 on PNA/DNA directed gene editing in vivo, the same β-globin/GFP transgenic mouse model described above was used. Three hours prior to treatment with nanoparticles, mice were injected with 0.5 mg of 3E10 intraperitoneally (i.p.). Either the full-length 3E10 or a single-chain variable fragment (scFv) were used. Two mg of nanoparticles containing PNA/Donor DNA were then injected intravenously. After eight days, bone marrow and spleens were harvested and CD117+ cells (C-KIT+, a marker of hematopoietic stem and progenitor cells) from these tissues were isolated using a Hematopoietic Progenitor Stem Cell Enrichment Set (BD Bioscience). Following enrichment, cells were analyzed via flow cytometry for GFP expression.

[2] = test system: bone marrow cells from Townes mice (beta globin gene, SCD mutation); assay: PNA/DNA editing of beta globin SCD mutation in bone marrow cells from Townes mice, ddPCR; format: cell-based, mouse; details: 2 mg nanoparticles per well, 48 h, 3E10 line: full length 3E10 plus nanoparticles
Experimental: Bone marrow cells were isolated from the same transgenic mouse model of sickle cell disease described above in Example 3 (Townes model, Jackson Laboratory). Cells were treated with full length 3E10 plus 2 mg of nanoparticles per well. The nanoparticles contained the donor DNA plus tcPNA2A, designed to bind to and correct the beta globin gene at the site of the SCD mutation (A:T to T:A).
After 48 hours, the cells were washed prior to genomic DNA isolation (SV Wizard, Promega). Freshly isolated genomic DNA was analyzed by droplet digital PCR (ddPCR) to quantify gene editing frequencies.

[3] = test system: bone marrow cells of Townes mice (codon 6 mutation in the beta globin gene); assay: In vivo PNA/DNA editing in Townes mice, bone marrow cells analysed by ddPCR; set-up: species or system mouse; details: 4 doses of 2 mg nanoparticles over 2 weeks, analysed after two months; 3E10 line: 1 mg 3E10 i.p. 3 h prior to each dose
Experimental: To further validate whether 3E10 can boost gene editing in vivo, the Townes model (the same sickle cell transgenic mouse model used in Examples 3 and 4) was used. Mice were injected with a total of 4 doses of 2 mg of nanoparticles containing PNA/donor DNA over the course of 2 weeks, with the goal of correcting the codon 6 mutation in the beta globin gene. Three hours prior to each nanoparticle administration, mice were injected with 1 mg of 3E10 intraperitoneally (i.p). After two months, bone marrow cells were harvested and analyzed for editing via digital droplet PCR (ddPCR). Injections were performed […] every 3 days over the course of 2 weeks as described above.

[4] = test system: SC-1 cells, a human lymphoblastoid cell line that carries the SCD mutation; assay: Beta globin editing in SC-1 cells, ddPCR; format: cell-based; details: 2 mg nanoparticles per well, 48 h, 3E10 line: 3E10 prior to nanoparticles
Experimental: SC-1 cells, a human lymphoblastoid cell line that carries the SCD mutation, were treated with 2 mg of nanoparticles per well with or without 3E10. After 48 hours, the cells were washed prior to genomic DNA isolation (SV Wizard, Promega). Freshly isolated genomic DNA was analyzed by droplet digital PCR (ddPCR) for editing frequencies.

[5] = test system: K562 cells carrying a BFP/GFP reporter gene; assay: CRISPR/Cas9 D10A nickase gene editing in K562 BFP/GFP reporter cells, flow cytometry; format: cell-based, human; details: full-length 3E10 1.5 mg/mL=10 μM, RNP plus donor DNA nucleofected, two days
Experimental: K562 cells carrying a BFP/GFP reporter gene (Richardson, et al., Nat. Biotechnol., 34 (3): 339-44 (2016)) were transfected with CRISPR/Cas9 WT or CRISPR/Cas9 D10A nickase variant enzymes plus a guide RNA targeting the mutation site in GFP. Some samples were also treated with full-length 3E10, at a concentration of 1.5 mg/mL=10 μM.
Cas9 protein and guide RNAs were introduced by nucleofection as a ribonucleoprotein (RNP) complex. 45 pmol of Cas9 protein (D10A nickase variant or WT, both obtained from PNA Bio) with 45 pmol of sgRNA (synthesized with Invitrogen GeneArt kit) in Cas9 nuclease buffer (NEB), were pre-incubated for 5 minutes at room temperature.
Cells were nucleofected with the RNP complex and donor DNA having the sequence:
The frequency of gene editing was measured two days later by flow cytometry for green fluorescence.

Substance: 3E10: cell-penetrating monoclonal anti-DNA antibody that binds to and inhibits RAD51; produced by ATCC No. PTA 2439 hybridoma
- gene editing in bone marrow CD117+ cells vs nanoparticles alone [1]: higher levels of gene editing
- gene editing in spleen CD117+ cells vs nanoparticles alone [1]: higher levels of gene editing
- gene editing frequency (ddPCR) [2]: more than 8%
- average editing frequency in bone marrow cells (ddPCR) [3]: 2.1%
- gene editing frequency (ddPCR) [4]: 17%
- effect on gene editing by nickase Cas9 D10A (green fluorescence) [5]: substantially boosted gene editing
